Laboratory results from patent US20240374739A1, “BILE ACID CONJUGATE” (Curtin University, priority 2021, published 2024).

Tests used:
Caspase 3/9 protein = assay: Caspase assay; type: cell-based; settings: OC-1 cells under stressful, toxic conditions (FIG. 31)
Protocol: The caspase assay was carried as per manufacturer's instructions (abcam, NSW, Australia), as described below.
• Collagen coated cover slip • Fixing agent: 4% paraformaldehyde • Permeabilization agent 0.5% of Tween 20 or trition-X 100 diluted in PBS • Blocking: 1% BSA in PBST may also be used. • PBST: 0.1% Tween 20 in PBS • Primary abs (1:500 in PBS) • Secondary abs (1:1000 in PBS) • Hoechst (Nuclear stain)
First day: Fixation, permeabilize, blocking and add a primary antibody to the cells, as described below:
• Start by aspirating culture medium from each well followed by fixation of the cells with 4% Using 4% paraformaldehyde in PBS pH 7.4 for 10 min at room temperature. (Add one ml in each well). • Shake a plate for a few seconds.
0.5% of Tween 20 or trition-X 100 diluted in PBS. […]
• Make coverslips ready to be mounted onto microscope slides. • Take a clean slide and dispense one drop of antifade mounting medium by slowly from the pipette into the slide. • Carefully remove a coverslip from the well and allow excess wash to drip off and place the cells face down onto the slide. • Clear fingernail polish can be used to seal the coverslip and prevent it from drying out. • Visualized slide under microscope. […]

[1] = test system: Rats subjected to sub-concussion (SC); assay: Rotarod test, brain injury (sub-concussion) study (Experimental Example 3); type: in vivo; settings: at 12 weeks (FIG. 14)
Description: Repeated sub-concussive head impacts are reported to impair psychomotor function. Rats were subjected to sham procedure, sub-concussion (SC) with control diet (AlN93M), SC with probucol, SC with aged garlic extract (AGE), or SC with HA-1 for 12 weeks.
Both rotarod and beam walk tests assess neuromotor function. On beam walk, the higher the slips show the more impairment. On rotarod, the lower the latency indicates the more impairment.

diabetic db/db mice = assay: Passive avoidance test (short-term memory) in diabetic db/db mice (Experimental Example 7); type: in vivo; settings: 14 and 28 weeks of age, compared to the control mice
Description: In this study, 4-5 week old diabetic db/db mice were put onto a diet containing probucol 0.1% (w/w) or HA-1 0.2% (w/w) for either 10 or 24 weeks, till the age of 14 or 28 weeks, respectively. Passive avoidance test was used to assess short-term memory. Subsequently, the mice were sacrificed to obtain plasma and brain tissue samples for further analyses.

Structure (SMILES): CC(=O)O[C@@H]1CC[C@@]2(C)[C@H](CC[C@@H]3[C@@H]2CC[C@]2(C)[C@@H]([C@H](C)CCC(=O)Oc4c(C(C)(C)C)cc(SC(C)(C)Sc5cc(C(C)(C)C)c(O)c(C(C)(C)C)c5)cc4C(C)(C)C)CC[C@@H]32)C1 [HA-1, 2,6-di-tert-butyl-4-((2-((3,5-di-tert-butyl-4-hydroxyphenyl)thio)propan-2-yl)thio)phenyl (4R)-4-[(3R,5R,8R,9S,10S,13R,14S,17R)-3-acetoxy-10,13-dimethyl-2,3,4,5,6,7,8,9,11,12,14,15,16,17-tetradecahydro-1H-cyclopenta[a]phenanthren-17-yl]pentanoate]
- protection against programmed cell death (caspase-3 activation) / viable cell population (Caspase 3/9 protein): significant protection against programmed cell death
- rotarod latency (average) [1]: significantly increased the latency
- passive avoidance latency (short-term memory) (diabetic db/db mice): significantly increased the latency
